Measured values from PubChem BioAssay AID508.

Biological target: S-adenosylmethionine synthase isoform type-2 (Homo sapiens) (UniProt P31153)
Experiment: PubChem AID 508
Conditions: recombinant MAT2A, DSF SYPRO orange Tm shift; at 10 µM; protein 2 µM; buffer 25 mM HEPES; pH 7.5; 75mM NaCl; 100uM ATPgammaS; Adenosine 5'-[gamma-thio]triphosphate tetralithium salt; active compounds read high

S-adenosylmethionine synthase isoform type-2 (Homo sapiens), sequence (P31153 whole entry, looked up, canonical isoform): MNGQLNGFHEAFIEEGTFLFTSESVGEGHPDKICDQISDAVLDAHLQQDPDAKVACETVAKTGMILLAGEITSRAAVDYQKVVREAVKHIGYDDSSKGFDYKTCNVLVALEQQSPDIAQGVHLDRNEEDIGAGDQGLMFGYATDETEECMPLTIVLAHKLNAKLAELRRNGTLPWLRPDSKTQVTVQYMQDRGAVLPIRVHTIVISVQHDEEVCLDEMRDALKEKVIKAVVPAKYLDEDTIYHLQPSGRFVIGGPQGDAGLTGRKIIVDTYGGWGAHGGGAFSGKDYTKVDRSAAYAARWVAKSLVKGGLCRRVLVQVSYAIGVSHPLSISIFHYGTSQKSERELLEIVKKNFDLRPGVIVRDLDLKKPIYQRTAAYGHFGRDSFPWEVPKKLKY

## CSCCC(N)C(=O)O (stereo unspecified)
  Tm shift: 2.1 Celsius
